The values below come from PubChem BioAssay (NCI).

Each structure is given as a SMILES string.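 These data come from cells grown in 96-well plates and exposed to compound for 48 hours at five concentrations. At the GI50, growth is halved. At the TGI there is no net growth.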

Holding throughout (experiment): NCI tumour cell line growth inhibition, 48 h
Assay [1] deals with K-562 leukemia.
Assay [2] has as its system SF-268 CNS.
Assay [3] deals with HCC-2998 colon.
Assay [4] concerns OVCAR-4 ovarian.
For assay [5], the system named is DU-145 prostate.
Assay [6] deals with MDA-N.
The test system of assay [7] is UACC-62 melanoma.
For assay [8], the system named is M14 melanoma.
Assay [9] concerns HL-60(TB) leukemia.
Assay [10] deals with NCI/ADR-RES ovarian.
The test system of assay [11] is MALME-3M melanoma.

For the compound `CC1(C=O)CC(CCc2ccccc2)NC1Cc1ccc(O)cc1` (centres undefined), the TGI was determined as 48.1 µM in [1]; 33.1 µM in assay [2]; 24.9 µM in assay [3]; 29 µM in assay [4]; 33.4 µM in assay [5]; 32.1 µM in [6]. The TGI was found to be 30.3 µM in assay [7], 29.7 µM in [8], 31.8 µM in [9] and 37.6 µM in assay [10].

Take `COC(=O)[C@]12CC[C@H]3CN(S(=O)(=O)c4ccc(C)cc4)[C@H]([C@H]31)[C@H](c1ccco1)N2S(=O)(=O)c1ccc(C)cc1`: the TGI is over 100 µM in assay [1]; over 100 µM in assay [2]; over 100 µM in assay [3]; over 100 µM in [4]; over 100 µM in [5]; 73.7 µM in [6]. Also, the TGI in assay [7] is 69.3 µM; in assay [8] it was 92.4 µM; in assay [11] it was 58.3 µM; in assay [9], 91.5 µM; in assay [10], over 100 µM.

On to `Nc1c(S(=O)(=O)O)cc(S(=O)(=O)O)c2ccc(N=Nc3ccccc3)c(O)c12`, for which the TGI in [1], in assay [2], in assay [4], in [5], in assay [6] and in [7] was over 100 µM throughout. Besides, the TGI in assay [8], in assay [11], in assay [9] and in [10] was over 100 µM in each case.

Turning to `C/C=C\C1OC1(C)c1cc(=O)c2c(C)cc3c(c2o1)C(=O)c1c(O)c(C2CC(C)(N(C)C)C(OC(C)=O)C(C)O2)cc(C2CC(N(C)C)C(O)C(C)O2)c1C3=O` (centres undefined), the TGI was 0.135 µM in assay [1]; 0.0721 µM in [2]; 0.00646 µM in [3]; 0.00888 µM in assay [4]; 0.0912 µM in assay [5]; 0.00857 µM in [6]. For the same compound, the TGI was determined as 0.00504 µM in assay [7], 0.00653 µM in assay [8] and 0.0566 µM in assay [11].

In the case of `O=C(c1ccccc1)c1ccc(N2C(=O)/C(=C/c3ccccc3S)N=C2c2ccccc2)c(N2C(=O)/C(=C/c3ccccc3S)N=C2c2ccccc2)c1`, the TGI in assay [1], in assay [2], in assay [3], in [4], in assay [5] and in assay [6] was over 100 µM throughout. Also, the TGI in assay [7], in assay [8], in [9] and in assay [10] was over 100 µM throughout.

For `O=C(O)C1=C(CO)Oc2cc3c(cc2C1c1ccc2c(c1)OCO2)OCO3` (centres undefined), the TGI in [1], in assay [4], in [7], in assay [8], in [11] and in [9] was over 100 µM each time.

Consider `CCCCCCC(=O)OC[n+]1ccc(-c2c(COC(=O)NC(C)C)c(COC(=O)NC(C)C)c3n2CCC3)cc1`, for which the TGI in [1], in [2], in assay [3], in assay [4], in assay [5] and in [7] was over 100 µM in each case. Besides, the TGI in assay [8] is over 100 µM; in assay [11], over 100 µM; in assay [9], over 71.4 µM; in assay [10], over 100 µM.

On to `CCOC(=O)c1sc2nc(SC)nc3c2c1NC(=O)CN3c1ccc(F)cc1`, for which the TGI is over 100 µM in [1]; 36.2 µM in assay [2]; over 100 µM in [3]; over 100 µM in [4]; 97.9 µM in assay [5]; over 100 µM in assay [6]. Besides, the TGI in assay [7], in [8], in [11] and in [9] was over 100 µM throughout.

For the compound `C=C(C)[C@@H]1CC[C@]2(C(=O)O)CC[C@]3(C)[C@H](CC[C@@H]4[C@@]5(C)C/C(=C/c6ccco6)C(=O)C(C)(C)[C@@H]5CC[C@]43C)[C@@H]12`, the GI50 in assay [2] is 3.63 µM; in assay [4], 5.9 µM; in assay [5] it was 3.07 µM. The TGI in [2] was over 100 µM; in assay [4], over 100 µM; in [5] it was 12.2 µM.

As for `C/C(=C\[Si](C)(C)c1ccco1)C(C)(O)[C@H](C)O` (some centres undefined), the TGI in assay [1] was over 100 µM; in assay [2] it was over 100 µM; in assay [3], over 100 µM; in [4], 12.8 µM; in assay [5], over 100 µM; in assay [6], over 100 µM. The TGI in [7], in assay [8], in [11], in assay [9] and in assay [10] was over 100 µM throughout.

With `Cc1nn(CNc2ccc(F)c(Cl)c2)c(=S)n1/N=C/c1ccc(-c2ccc(Cl)cc2Cl)o1`, the TGI in assay [1] was found to be 15.5 µM; in assay [2], 34.6 µM; in [4], 50 µM; in assay [5] it was 30.7 µM; in assay [6], 33.5 µM; in [8], 36.9 µM. Further, the figures for the TGI in assay [9] and in [10] were 16.9 µM and 44.5 µM, respectively.

Regarding `Cc1csc2nc(-c3cc([N+](=O)[O-])c(Cl)cc3Cl)c(/C=N/N=C(N)N)n12`, the TGI was 20.4 µM in assay [1]; 39.7 µM in assay [2]; 22.1 µM in [3]; 29.8 µM in [4]; 32.3 µM in assay [5]; 27.2 µM in [7]. Also, the TGI in [8] was 34.3 µM; in assay [11] it was 35.3 µM; in assay [9], 28.9 µM; in [10], 32 µM.

Regarding `O=P1(Oc2ccc(Cl)cc2Cl)Oc2cc3ccccc3cc2O1`, the TGI in assay [1] is over 100 µM; in [2] it was over 100 µM; in assay [3] it was 59.6 µM; in assay [4] it was over 100 µM; in assay [7] it was over 100 µM; in [11], over 100 µM. In addition, the TGI in assay [9] is 50.8 µM; in assay [10], over 100 µM.
